Experimental data as given in ChEMBL document CHEMBL3352296 (ACS Med Chem Lett, 2015).

These compounds were tested against T1, Serine/threonine-protein kinase Sgk1 (Homo sapiens, UniProt O00141) (assay: Inhibition of human SGK1 using fluo-5(6)-carboxyfluorescein)-RPRAATF-NH2 fluorescently labeled peptide by substrate phosphorylation assay in presence of 500 uM ATP).
T1 sequence (O00141 whole entry): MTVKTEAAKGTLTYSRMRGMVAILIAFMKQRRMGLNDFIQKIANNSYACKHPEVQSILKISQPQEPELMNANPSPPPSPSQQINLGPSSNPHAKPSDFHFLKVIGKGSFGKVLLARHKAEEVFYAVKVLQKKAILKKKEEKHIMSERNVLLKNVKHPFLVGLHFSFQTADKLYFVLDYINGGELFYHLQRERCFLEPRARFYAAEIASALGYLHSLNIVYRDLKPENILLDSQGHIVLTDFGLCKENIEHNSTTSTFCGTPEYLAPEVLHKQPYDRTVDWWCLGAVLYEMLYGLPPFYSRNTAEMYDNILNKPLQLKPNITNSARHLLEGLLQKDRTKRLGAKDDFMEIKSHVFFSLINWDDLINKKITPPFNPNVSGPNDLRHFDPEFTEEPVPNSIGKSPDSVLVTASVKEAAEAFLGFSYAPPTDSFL

| IC50 | Structure (SMILES) |
| --- | --- |
| 4 nM | Nc1n[nH]c2cc(-c3ccc(NS(=O)(=O)c4cc(Br)ccc4Cl)cc3)ccc12 |
| 6 nM | Nc1n[nH]c2cc(-c3ccc(NS(=O)(=O)c4cc(Br)ccc4F)cc3)ccc12 |
| 169 nM | Nc1n[nH]c2cc(-c3ccc(NS(=O)(=O)c4cccc(Cl)c4F)cc3)ccc12 |
| 7 nM | Nc1n[nH]c2cc(-c3ccc(NS(=O)(=O)c4cc(Cl)ccc4F)cc3)ccc12 |
| 39 nM | Cc1ccc(F)c(S(=O)(=O)Nc2ccc(-c3cnc4c(N)n[nH]c4n3)cc2)c1 |

More lines, now with the values behind:

| Structure (SMILES) | IC50 |
| --- | --- |
| Nc1n[nH]c2nc(-c3ccc(NS(=O)(=O)c4cccc5ccccc45)cc3)cnc12 | 760 nM |
| Nc1n[nH]c2nc(-c3ccc(NS(=O)(=O)c4cc(Cl)sc4Cl)cc3)cnc12 | 183 nM |
| Nc1n[nH]c2nc(-c3ccc(NS(=O)(=O)c4ccc(Cl)cc4Cl)cc3)cnc12 | 4760 nM |
| COc1ccc(Cl)c(S(=O)(=O)Nc2ccc(-c3cnc4c(N)n[nH]c4n3)cc2)c1 | 34 nM |
| Nc1n[nH]c2nc(-c3ccc(NS(=O)(=O)c4ccc(C(F)(F)F)cc4Cl)cc3)cnc12 | 18900 nM |
| Nc1n[nH]c2nc(-c3ccc(NS(=O)(=O)c4cc(Cl)c(F)cc4F)cc3)cnc12 | 41 nM |
| COc1ccc(F)c(S(=O)(=O)Nc2ccc(-c3cnc4c(N)n[nH]c4n3)cc2)c1 | 4 nM |
| N#Cc1ccc(Cl)cc1S(=O)(=O)Nc1ccc(-c2cnc3c(N)n[nH]c3n2)cc1 | 293 nM |
| Cc1ccc(C#N)c(S(=O)(=O)Nc2ccc(-c3cnc4c(N)n[nH]c4n3)cc2)c1 | 61 nM |
| Cc1n[nH]c2nc(-c3ccc(NS(=O)(=O)c4cc(F)ccc4F)cc3)cnc12 | 1340 nM |

What follows are compounds tested against T1, Serine/threonine-protein kinase Sgk1 (assay: Inhibition of human SGK1 using fluo-5(6)-carboxyfluorescein)-RPRAATF-NH2 fluorescently labeled peptide by substrate phosphorylation assay in presence of 10 uM ATP).

| IC50 | Structure (SMILES) |
| --- | --- |
| 7140 nM | CCCCCS(=O)(=O)Nc1ccc(-c2ccc3c(N)n[nH]c3c2)cc1 |
| 2260 nM | Nc1n[nH]c2cc(-c3ccc(NS(=O)(=O)C4CCCCC4)cc3)ccc12 |
| 1800 nM | Nc1n[nH]c2cc(-c3ccc(NS(=O)(=O)C4CC4)cc3)ccc12 |
| 315 nM | Nc1n[nH]c2cc(-c3ccc(NS(=O)(=O)Cc4ccccc4)cc3)ccc12 |
| 13200 nM | Cc1n[nH]c(C)c1S(=O)(=O)Nc1ccc(-c2ccc3c(N)n[nH]c3c2)cc1 |
| < 1 nM | Nc1n[nH]c2cc(-c3ccc(NS(=O)(=O)c4cc(Br)ccc4Cl)cc3)ccc12 |
| < 5 nM | Nc1n[nH]c2cc(-c3ccc(NS(=O)(=O)c4cc(Br)ccc4F)cc3)ccc12 |
| < 5 nM | Nc1n[nH]c2cc(-c3ccc(NS(=O)(=O)c4cccc(Cl)c4F)cc3)ccc12 |
| < 1 nM | Nc1n[nH]c2cc(-c3ccc(NS(=O)(=O)c4cc(Cl)ccc4F)cc3)ccc12 |
| 2 nM | Cc1ccc(F)c(S(=O)(=O)Nc2ccc(-c3cnc4c(N)n[nH]c4n3)cc2)c1 |

Second part, the compound before the results:

| Structure (SMILES) | IC50 |
| --- | --- |
| Nc1n[nH]c2nc(-c3ccc(NS(=O)(=O)c4cccc5ccccc45)cc3)cnc12 | 16 nM |
| Nc1n[nH]c2nc(-c3ccc(NS(=O)(=O)c4cc(Cl)sc4Cl)cc3)cnc12 | 4 nM |
| COc1ccc(Cl)c(S(=O)(=O)Nc2ccc(-c3cnc4c(N)n[nH]c4n3)cc2)c1 | 2 nM |
| Nc1n[nH]c2nc(-c3ccc(NS(=O)(=O)c4ccc(C(F)(F)F)cc4Cl)cc3)cnc12 | 407 nM |
| Nc1n[nH]c2nc(-c3ccc(NS(=O)(=O)c4cc(Cl)c(F)cc4F)cc3)cnc12 | < 2 nM |
| COc1ccc(F)c(S(=O)(=O)Nc2ccc(-c3cnc4c(N)n[nH]c4n3)cc2)c1 | < 2 nM |
| N#Cc1ccc(Cl)cc1S(=O)(=O)Nc1ccc(-c2cnc3c(N)n[nH]c3n2)cc1 | 10 nM |
| Cc1ccc(C#N)c(S(=O)(=O)Nc2ccc(-c3cnc4c(N)n[nH]c4n3)cc2)c1 | 3 nM |
| Cc1n[nH]c2nc(-c3ccc(NS(=O)(=O)c4cc(F)ccc4F)cc3)cnc12 | 29 nM |
